Structures are written as SMILES.

Our source for the remaining binding values is article PMC10174618, “Monoterpenoid aryl hydrocarbon receptor allosteric antagonists protect against ultraviolet skin damage in female mice” (Nature Communications, 2023).

Experiment [1] deals with MAP4K2 (Homo sapiens, UniProt Q12851). In words: biochemical. Details: KINOMEscan scanMAX active site-directed competition binding assay, percent of control, 468 kinases. Particulars: competition binding, percent of control. The protocol:
(§1) The KINOMEscan^TM screening platform (scanMAX assay) employs a proprietary active site-directed competition binding assay that quantitatively measures the interactions between test compounds (here 100 μM S-carvone) and 468 human protein kinases. The assay was performed at Eurofins DiscoverX Corp. (Fremont, CA, USA). Blocking protein kinase C (PKC) activity was reported to inhibit the transcription of CYP1A1 but to exert no effect on the nuclear translocation of AhR[26], which was also the case here with carvones. Therefore, we tested whether carvones inhibit PKC catalytic activity. […] We also evaluated the interaction between 100 μM S-carvone and 468 human protein kinases, employing KINOMEscan^TM (scanMAX assay), a proprietary active site-directed competition binding assay. The minimal inhibitory threshold used by the screening platform KINOMEscan^TM is 35% of the control kinase activity. Among 468 kinases tested, 467 were above the 35% cutoff. Tyrosine kinase 2 TK2 (JH2 domain pseudokinase) activity was inhibited to 27% of the control activity, but this kinase is not relevant to the regulation of transcription activity (Fig. 5B; Figure S9). Overall, we excluded the possibility that the effects of carvones on AhR signaling are caused indirectly by the inhibition of the human kinome, particularly PKC.

The target of experiment [2] is CSNK2A1 (Homo sapiens, UniProt P68400). In words: biochemical. Details: KINOMEscan scanMAX active site-directed competition binding assay, percent of control, 468 kinases. To be noted: competition binding, percent of control. The protocol:
as §1

Experiment [3] concerns the target PIK3CD (Homo sapiens, UniProt O00329). Put plainly: biochemical. To be noted: competition binding, percent of control. Details: KINOMEscan scanMAX active site-directed competition binding assay, percent of control, 468 kinases. The method, then: as §1
The target in experiment [4] is CAMK2A (Homo sapiens, UniProt Q9UQM7). In words: biochemical. Details: KINOMEscan scanMAX active site-directed competition binding assay, percent of control, 468 kinases. To be noted: competition binding, percent of control. The protocol:
as §1

The target of experiment [5] is ERBB3 (Homo sapiens, UniProt P21860). In words: biochemical. Details: KINOMEscan scanMAX active site-directed competition binding assay, percent of control, 468 kinases. To be noted: competition binding, percent of control. The protocol:
as §1

Experiment [6] has as its target PHKG1 (Homo sapiens, UniProt Q16816). In words: biochemical. Details: KINOMEscan scanMAX active site-directed competition binding assay, percent of control, 468 kinases. To be noted: competition binding, percent of control. The protocol: as §1
The target of experiment [7] is PLK3 (Homo sapiens, UniProt Q9H4B4). In words: biochemical. Details: KINOMEscan scanMAX active site-directed competition binding assay, percent of control, 468 kinases. To be noted: competition binding, percent of control. The method, then: as §1
Experiment [8] addresses DAPK2 (Homo sapiens, UniProt Q9UIK4). In words: biochemical. Details: KINOMEscan scanMAX active site-directed competition binding assay, percent of control, 468 kinases. Particulars: competition binding, percent of control. The method, then:
as §1

Experiment [9] deals with FLT3(D835Y) (Homo sapiens, UniProt P36888, D835Y). In words: biochemical. Details: KINOMEscan scanMAX active site-directed competition binding assay, percent of control, 468 kinases. Particulars: competition binding, percent of control. The protocol: as §1
Experiment [10] deals with PIK3CB (Homo sapiens, UniProt P42338). Put plainly: biochemical. Details: KINOMEscan scanMAX active site-directed competition binding assay, percent of control, 468 kinases. Particulars: competition binding, percent of control. The method, then: as §1
For experiment [11], the target named is EPHB2 (Homo sapiens, UniProt P29323). Put plainly: biochemical. Details: KINOMEscan scanMAX active site-directed competition binding assay, percent of control, 468 kinases. Particulars: competition binding, percent of control. The protocol: as §1
Experiment [12] addresses MYLK (Homo sapiens, UniProt Q15746). Put plainly: biochemical. Details: KINOMEscan scanMAX active site-directed competition binding assay, percent of control, 468 kinases. Particulars: competition binding, percent of control. The method, then: as §1
For experiment [13], the target named is T1, ABL1(H396P)-nonphosphorylated (Homo sapiens, UniProt P00519, H396P).
T1 construct: nonphosphorylated
In words: biochemical. Details: KINOMEscan scanMAX active site-directed competition binding assay, percent of control, 468 kinases. Particulars: competition binding, percent of control. The protocol:
as §1

Experiment [14] addresses T2, HPK1 (Homo sapiens, UniProt Q92918).
T2 construct: gene MAP4K1
Put plainly: biochemical. Details: KINOMEscan scanMAX active site-directed competition binding assay, percent of control, 468 kinases. To be noted: competition binding, percent of control. The protocol: as §1

Experiment [15] concerns the target T3, PRKR (Homo sapiens, UniProt P19525).
T3 construct: gene EIF2AK2
Put plainly: biochemical. Details: KINOMEscan scanMAX active site-directed competition binding assay, percent of control, 468 kinases. Particulars: competition binding, percent of control. The protocol: as §1

Experiment [16] deals with DDR1 (Homo sapiens, UniProt Q08345). Put plainly: biochemical. Details: KINOMEscan scanMAX active site-directed competition binding assay, percent of control, 468 kinases. Particulars: competition binding, percent of control. The method, then:
as §1

The target in experiment [17] is NEK1 (Homo sapiens, UniProt Q96PY6). Put plainly: biochemical. Details: KINOMEscan scanMAX active site-directed competition binding assay, percent of control, 468 kinases. Particulars: competition binding, percent of control. The protocol: as §1
Experiment [18] deals with MTOR (Homo sapiens, UniProt P42345). In words: biochemical. Details: KINOMEscan scanMAX active site-directed competition binding assay, percent of control, 468 kinases. Particulars: competition binding, percent of control. The method, then:
as §1

The target of experiment [19] is CDK5 (Homo sapiens, UniProt Q00535). Put plainly: biochemical. Particulars: competition binding, percent of control. Details: KINOMEscan scanMAX active site-directed competition binding assay, percent of control, 468 kinases. The protocol:
as §1

The target in experiment [20] is SRPK1 (Homo sapiens, UniProt Q96SB4). In words: biochemical. Details: KINOMEscan scanMAX active site-directed competition binding assay, percent of control, 468 kinases. Particulars: competition binding, percent of control. The method, then: as §1
The target of experiment [21] is RET(V804L) (Homo sapiens, UniProt P07949, V804L). Put plainly: biochemical. Details: KINOMEscan scanMAX active site-directed competition binding assay, percent of control, 468 kinases. To be noted: competition binding, percent of control. The protocol: as §1
The target of experiment [22] is T4, Tyrosine kinase 2 TK2 (JH2 domain pseudokinase) (Homo sapiens, UniProt P29597).
T4 construct: gene TYK2; JH2 domain pseudokinase
In words: KINOMEscan competition binding, single concentration […]. To be noted: read-out: % of control at 100 μM.

Chain of MAP4K2 (Q12851 whole entry): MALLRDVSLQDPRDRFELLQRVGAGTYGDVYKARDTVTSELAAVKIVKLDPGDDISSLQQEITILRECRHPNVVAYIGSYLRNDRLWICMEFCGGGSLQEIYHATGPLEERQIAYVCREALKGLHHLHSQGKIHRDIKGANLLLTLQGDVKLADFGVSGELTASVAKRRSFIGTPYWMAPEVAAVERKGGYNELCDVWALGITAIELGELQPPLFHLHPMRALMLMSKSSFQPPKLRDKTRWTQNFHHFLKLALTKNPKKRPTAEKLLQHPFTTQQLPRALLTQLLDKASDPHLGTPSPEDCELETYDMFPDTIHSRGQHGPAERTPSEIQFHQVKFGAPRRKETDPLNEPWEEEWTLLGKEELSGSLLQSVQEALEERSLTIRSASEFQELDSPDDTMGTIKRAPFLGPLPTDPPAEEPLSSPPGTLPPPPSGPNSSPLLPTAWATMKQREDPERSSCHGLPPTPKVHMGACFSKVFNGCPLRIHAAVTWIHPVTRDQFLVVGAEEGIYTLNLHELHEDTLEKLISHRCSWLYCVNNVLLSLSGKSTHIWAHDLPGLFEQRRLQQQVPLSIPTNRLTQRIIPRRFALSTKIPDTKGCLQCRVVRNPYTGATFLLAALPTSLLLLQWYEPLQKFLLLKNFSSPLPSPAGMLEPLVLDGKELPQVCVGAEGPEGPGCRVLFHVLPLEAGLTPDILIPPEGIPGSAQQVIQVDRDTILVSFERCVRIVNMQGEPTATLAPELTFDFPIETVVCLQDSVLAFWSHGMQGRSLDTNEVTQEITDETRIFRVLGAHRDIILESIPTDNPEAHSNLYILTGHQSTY
Chain of MYLK (Q15746 whole entry): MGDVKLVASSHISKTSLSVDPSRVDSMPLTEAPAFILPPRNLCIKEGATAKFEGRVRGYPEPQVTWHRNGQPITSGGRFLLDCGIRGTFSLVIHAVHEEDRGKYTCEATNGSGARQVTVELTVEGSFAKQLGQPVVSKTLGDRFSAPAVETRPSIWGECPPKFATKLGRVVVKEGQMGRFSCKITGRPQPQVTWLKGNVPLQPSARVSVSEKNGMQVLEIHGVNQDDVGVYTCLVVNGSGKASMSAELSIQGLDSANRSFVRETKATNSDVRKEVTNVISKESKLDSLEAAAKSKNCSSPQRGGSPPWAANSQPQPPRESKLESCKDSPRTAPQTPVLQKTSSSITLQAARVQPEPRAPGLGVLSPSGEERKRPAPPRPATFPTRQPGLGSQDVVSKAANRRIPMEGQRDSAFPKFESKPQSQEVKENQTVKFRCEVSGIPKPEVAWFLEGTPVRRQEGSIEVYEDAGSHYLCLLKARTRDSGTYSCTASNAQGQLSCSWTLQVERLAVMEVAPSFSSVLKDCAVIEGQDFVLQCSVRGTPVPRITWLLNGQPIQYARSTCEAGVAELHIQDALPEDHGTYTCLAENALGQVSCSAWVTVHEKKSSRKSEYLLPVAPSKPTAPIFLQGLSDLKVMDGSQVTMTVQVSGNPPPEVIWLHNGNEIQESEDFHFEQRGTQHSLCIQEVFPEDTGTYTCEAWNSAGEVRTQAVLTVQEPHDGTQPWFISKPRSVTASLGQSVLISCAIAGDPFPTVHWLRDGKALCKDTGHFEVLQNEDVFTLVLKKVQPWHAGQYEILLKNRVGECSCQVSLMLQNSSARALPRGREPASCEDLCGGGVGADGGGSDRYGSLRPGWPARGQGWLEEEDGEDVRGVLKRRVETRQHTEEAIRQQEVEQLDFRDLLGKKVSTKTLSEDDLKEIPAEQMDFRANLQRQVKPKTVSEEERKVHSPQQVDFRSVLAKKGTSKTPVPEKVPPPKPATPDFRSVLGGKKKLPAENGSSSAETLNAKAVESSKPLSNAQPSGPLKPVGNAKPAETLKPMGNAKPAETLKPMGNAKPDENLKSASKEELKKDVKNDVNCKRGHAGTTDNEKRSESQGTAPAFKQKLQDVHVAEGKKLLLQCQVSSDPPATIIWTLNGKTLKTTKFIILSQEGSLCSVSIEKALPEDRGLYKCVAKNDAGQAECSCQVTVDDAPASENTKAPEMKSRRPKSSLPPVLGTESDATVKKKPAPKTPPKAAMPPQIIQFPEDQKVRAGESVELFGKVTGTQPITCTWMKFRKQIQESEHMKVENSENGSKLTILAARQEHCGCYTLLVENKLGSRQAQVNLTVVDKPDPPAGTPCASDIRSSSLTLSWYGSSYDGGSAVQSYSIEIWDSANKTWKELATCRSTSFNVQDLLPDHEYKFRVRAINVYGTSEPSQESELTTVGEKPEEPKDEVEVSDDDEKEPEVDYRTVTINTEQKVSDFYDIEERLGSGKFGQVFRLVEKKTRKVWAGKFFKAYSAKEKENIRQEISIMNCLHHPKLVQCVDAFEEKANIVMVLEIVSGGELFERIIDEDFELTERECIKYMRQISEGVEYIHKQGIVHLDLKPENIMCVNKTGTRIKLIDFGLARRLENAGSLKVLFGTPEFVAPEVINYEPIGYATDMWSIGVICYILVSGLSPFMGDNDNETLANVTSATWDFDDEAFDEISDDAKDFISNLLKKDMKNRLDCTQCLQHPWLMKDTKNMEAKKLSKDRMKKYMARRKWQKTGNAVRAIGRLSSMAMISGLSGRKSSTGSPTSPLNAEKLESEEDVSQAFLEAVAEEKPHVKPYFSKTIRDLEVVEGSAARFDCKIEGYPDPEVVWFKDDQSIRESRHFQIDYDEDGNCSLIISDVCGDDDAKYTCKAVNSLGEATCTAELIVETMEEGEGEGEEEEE
Chain of PIK3CD (O00329 whole entry): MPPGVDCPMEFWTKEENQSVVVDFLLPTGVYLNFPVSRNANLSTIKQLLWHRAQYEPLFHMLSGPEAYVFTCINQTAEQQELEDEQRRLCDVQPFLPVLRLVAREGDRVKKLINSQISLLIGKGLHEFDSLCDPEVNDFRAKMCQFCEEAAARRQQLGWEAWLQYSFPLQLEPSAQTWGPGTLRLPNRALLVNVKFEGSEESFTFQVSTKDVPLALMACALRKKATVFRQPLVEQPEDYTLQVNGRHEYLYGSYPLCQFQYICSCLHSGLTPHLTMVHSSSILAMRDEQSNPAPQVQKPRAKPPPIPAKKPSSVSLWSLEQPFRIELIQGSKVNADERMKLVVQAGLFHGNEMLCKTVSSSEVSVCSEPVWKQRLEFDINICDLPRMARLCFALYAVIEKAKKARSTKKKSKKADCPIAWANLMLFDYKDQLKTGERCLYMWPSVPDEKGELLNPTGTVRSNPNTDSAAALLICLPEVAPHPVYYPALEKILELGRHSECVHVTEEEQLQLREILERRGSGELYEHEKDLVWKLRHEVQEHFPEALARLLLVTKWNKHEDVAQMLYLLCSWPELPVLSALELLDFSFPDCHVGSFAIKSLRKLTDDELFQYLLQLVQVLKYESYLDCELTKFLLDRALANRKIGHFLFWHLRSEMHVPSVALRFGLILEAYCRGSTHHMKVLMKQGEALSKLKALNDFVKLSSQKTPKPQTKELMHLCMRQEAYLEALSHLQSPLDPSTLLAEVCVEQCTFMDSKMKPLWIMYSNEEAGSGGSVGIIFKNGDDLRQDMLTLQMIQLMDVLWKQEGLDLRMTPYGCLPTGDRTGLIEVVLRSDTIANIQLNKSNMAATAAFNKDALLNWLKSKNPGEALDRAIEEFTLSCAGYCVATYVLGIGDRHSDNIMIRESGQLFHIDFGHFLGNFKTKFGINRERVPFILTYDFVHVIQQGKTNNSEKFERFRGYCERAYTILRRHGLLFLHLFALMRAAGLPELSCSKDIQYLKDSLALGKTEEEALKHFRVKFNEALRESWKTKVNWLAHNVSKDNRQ
Chain of PHKG1 (Q16816 whole entry): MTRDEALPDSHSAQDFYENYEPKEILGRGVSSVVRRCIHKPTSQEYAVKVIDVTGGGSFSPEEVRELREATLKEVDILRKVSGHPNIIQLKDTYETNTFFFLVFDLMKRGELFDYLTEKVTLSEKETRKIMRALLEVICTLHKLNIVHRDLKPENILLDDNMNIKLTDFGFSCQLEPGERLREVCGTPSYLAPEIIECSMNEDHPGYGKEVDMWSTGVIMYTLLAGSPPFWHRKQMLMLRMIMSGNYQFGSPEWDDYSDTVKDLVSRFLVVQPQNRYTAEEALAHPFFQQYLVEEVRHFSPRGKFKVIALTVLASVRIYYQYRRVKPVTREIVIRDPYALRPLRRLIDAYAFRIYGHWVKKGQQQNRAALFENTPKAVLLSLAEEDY
Chain of DAPK2 (Q9UIK4 whole entry): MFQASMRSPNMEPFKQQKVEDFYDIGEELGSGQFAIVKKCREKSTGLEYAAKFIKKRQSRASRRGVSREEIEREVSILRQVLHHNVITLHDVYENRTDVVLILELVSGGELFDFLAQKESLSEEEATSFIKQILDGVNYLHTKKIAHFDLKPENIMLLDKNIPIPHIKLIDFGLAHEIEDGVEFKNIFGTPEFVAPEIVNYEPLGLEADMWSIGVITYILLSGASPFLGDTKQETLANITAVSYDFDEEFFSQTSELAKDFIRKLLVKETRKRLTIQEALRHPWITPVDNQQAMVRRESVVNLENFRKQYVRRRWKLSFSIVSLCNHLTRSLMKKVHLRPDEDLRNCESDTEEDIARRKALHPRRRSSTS
Chain of CDK5 (Q00535 whole entry): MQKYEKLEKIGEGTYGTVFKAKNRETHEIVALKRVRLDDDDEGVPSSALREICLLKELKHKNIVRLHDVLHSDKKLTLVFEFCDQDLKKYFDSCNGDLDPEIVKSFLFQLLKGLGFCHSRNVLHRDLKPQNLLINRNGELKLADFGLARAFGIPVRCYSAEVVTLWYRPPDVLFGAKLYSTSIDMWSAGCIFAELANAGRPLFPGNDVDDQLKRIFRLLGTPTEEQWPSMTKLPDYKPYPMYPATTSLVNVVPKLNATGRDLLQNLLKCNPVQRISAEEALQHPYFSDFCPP

Consider `C=C(C)[C@H]1CC=C(C)C(=O)C1` [S-carvone], for which the remaining binding at 100 µM worked out at 94% in [1]; 71% in [2]; 87% in experiment [3]; 79% in [4]; 78% in experiment [5]; 100% in experiment [6]. In addition, the remaining binding at 100 µM was determined as 69% in [7]; 79% in experiment [8]; 90% in experiment [9]; 88% in [10]; 66% in experiment [11]; 51% in [12]. Further, the remaining binding at 100 µM in [13] was 82%; in experiment [14], 80%; in [15], 74%; in [16], 90%; in experiment [17], 94%; in experiment [18] it was 78%. For the same molecule, the remaining binding at 100 µM in [19] stood at 61%; in experiment [20] it was 77%; in experiment [21], 87%; in experiment [22] it was 27%.
